Where a name gives a salt, the structure may show the parent alone.
Legend:
[1] = Acute oral toxicity (LD50); details: for LD50: acute oral toxicity
[2] = Fixing effect: HS-GC (II), analysis of volatilized portion after standing 15 minutes; assay type: physicochemical; details: controlling agent 15%, model perfume 5%
Protocol: (§1) Then, the fixing effect was evaluated by a second head space gas chromatographic (II) method (HS-GC (II)). Specifically, a perfume containing 0.7 g of a perfume controlling agent was coated on a sheet of paper having a predetermined thickness, area (11.5 × 7.5 cm), and weight (about 2.9 g). The coated paper was allowed to stand for 15 minutes in an open space in a room (6 × 4 × 2.5 m) maintained at a humidity of 50% at a ventilation rate of 1,500 m^3 /hr. The paper was then transferred into a 1,000 ml Erlenmeyer flask, and the flask was tightly sealed. After a lapse of 15 minutes, the volatilized portion was collected and analyzed by gas chromatography under the conditions shown Table A above. Furthermore, the residue on the paper was extracted with acetone, and analyzed by gas chromatography using conditions shown in Table B below.
(§2) The composition of the model perfume used was as follows:
Model Perfume: 5% by weight
95% Ethanol: 95% by weight
The composition of the perfume containing a perfume controlling agent was as follows:
Perfume Controlling Agent: 15% by weight
95% Ethanol: 80% by weight

Pseudomonas aeruginosa = assay: Microorganism assimilation; details: for OD (turbidity): 660 nm; for Assimilation by microorganism: conclusion from Table 8
Protocol: 100 ml of the above liquid medium was placed in a 500 ml Sakaguchi flask, and sterilized at 120° C for 15 minutes in an autoclave in a customary manner. After cooling, the culture medium was inoculated with a prescribed amount of a suspension of the pre-cultured microorganism and cultivated at 30° C with shaking 120 times per minute.
Changes with time in the pH, turbidity, number of living cells were determined.
The turbidity was determined as follows: 2 ml of the culture broth was collected, and the precipitate was separated with a centrifugal separator. The precipitate was washed with acetone, and suspended in 2 ml of distilled water. The turbidity (OD) of the suspension at 660 nm was measured.

skin of an albino rabbit = assay: Primary irritation of the skin of an albino rabbit; assay type: in vivo; details: 0.3 ml, intact and abraded area, 24 hours
Protocol: The primary irritation of the skin of an albino rabbit was determined by adhering 0.3 ml of a test agent on a lint cloth patch, applying the cloth to an intact area and an abraded area of the skin of the back of the albino rabbit, and evaluating the skin reactions at these two areas after a lapse of 24 hours. Then, an overall evaluation was made.

skin of a guinea pig = assay: Cumulative irritation on the skin of a guinea pig; assay type: in vivo; details: 0.3 ml three times at 24 hour intervals, intact skin
Protocol: The cumulative irritation on the skin of a guinea pig was evaluated by coating 0.3 ml of a test agent on intact skin of the guinea pig and judging the skin reaction after a lapse of 24 hours, then coating the test agent in an amount of 0.3 ml on the same site twice, each at 24 hour intervals, and judging the reaction of the skin after a lapse of 72 hours (after coating three times).

[3] = Stabilizing effect on octanal (APHA color); assay type: physicochemical; details: 37° C, 1 month; original APHA 15; 50% controlling agent added or octanal alone
Protocol: Octanal was selected as a single perfume, and the stabilizing effect of the perfume controlling agent was determined.
Amount of Perfume Controlling Agent: 50% based on the octanal (in the case of both DIBA and DIAA)
Test Temperature and Period: 37° C, one month (checked every week)
Items Evaluated: Acid value (AV), carbonyl value (COV), APHA color
In the test, a 100 ml brown bottle boiled in water for 12 hours was used, and the head space of the bottle was purged with nitrogen gas after the octanal had been introduced into the bottle.
Specifically, the color of a solution obtained by diluting 1 ml of a standard original color liquid (octanal) with water exactly to a volume of 100 ml is taken as APHA No. 5, and the APHA color number is increased by a multiple of 5 (as 10, 15, 20 . . . ) for every 1 ml increase of the original liquid.

[4] = Fixing effect: analysis of residue on paper after standing 15 minutes; assay type: physicochemical
Protocol: as §1
Column: 5% FFAP (free fatty acid polyester; a trade name for a product of Nippon Chromato Co., Ltd.) on diatomaceous earth (2m)
Column Temperature: 80° C (5 minutes, isothermal) to 220° C (4° C/min.)
Injector Temperature: 260° C
Detector Temperature: 260° C
Detector: Flame Ionization Detector
Carrier Gas: He (40 ml/min.)
as §2
The values shown in Table 5 above were obtained by calculating the areas of the perfumes while the area of musk ketone measured by gas chromatography was taken as 1. (This calculating procedure was adopted because musk ketone has a high boiling point, and scarcely volatilizes at 30° C.)

[5] = Linalyl Acetate (not present: 39.0%)
[6] = Musk ketone (not present: 0.0%)
[7] = Citral (not present: 1.5), area of musk ketone taken as 1
[8] = Limonene (not present: 0.3), area of musk ketone taken as 1
[9] = Linalool (not present: 6.4), area of musk ketone taken as 1
[10] = Linalyl Acetate (not present: 5.1), area of musk ketone taken as 1
[11] = Musk Ketone (reference, taken as 1; not present: 1.0)
[12] = Pinene (not present: 0.0), area of musk ketone taken as 1

Compound | LD50 [1] | Analysis of Volatilized Portion after Standing 15 Minutes (HS-GC (II) Method) ([2]; Citral (not present: 3.5%)) | Analysis of Volatilized Portion after Standing 15 Minutes (HS-GC (II) Method) ([2]; Limonene (not present: 2.6%)) | Analysis of Volatilized Portion after Standing 15 Minutes (HS-GC (II) Method) ([2]; Linalool (not present: 45.2%)) | Analysis of Volatilized Portion after Standing 15 Minutes (HS-GC (II) Method) [2, 5] | Analysis of Volatilized Portion after Standing 15 Minutes (HS-GC (II) Method) [2, 6] | Analysis of Volatilized Portion after Standing 15 Minutes (HS-GC (II) Method) ([2]; Pinene (not present: 0.2%)) | pH (Pseudomonas aeruginosa; 0 days elapsed) | Number of Living Cells (Pseudomonas aeruginosa; 2 days elapsed) | pH (Pseudomonas aeruginosa; 2 days elapsed) | OD (turbidity) (Pseudomonas aeruginosa; 2 days elapsed) | Number of Living Cells (Pseudomonas aeruginosa; 7 days elapsed) | pH (Pseudomonas aeruginosa; 7 days elapsed) | OD (turbidity) (Pseudomonas aeruginosa; 7 days elapsed) | Number of Living Cells (Pseudomonas aeruginosa; 14 days elapsed) | pH (Pseudomonas aeruginosa; 14 days elapsed) | OD (turbidity) (Pseudomonas aeruginosa; 14 days elapsed) | Assimilation by microorganism (Pseudomonas aeruginosa) | also measured
CC(O)CO (centres unmarked) [Propylene Glycol] | 23.9 mL/kg |  |  |  |  |  |  |  |  |  |  |  |  |  |  |  |  |  | 
CCOC(=O)c1ccccc1C(=O)OCC [Diethyl Phthalate, diethyl phthalate] |  | 1.2% | 31.3% | 40.5% | 18.4% | 0.0% | 0.9% | 6.86 | 2.5 × 10^6 | 6.86 | 0.001 | 4.2 × 10^4 | 6.86 | 0.001 | 5.2 × 10^5 | 6.86 | 0 | not assimilated | 
CCCCC(CC)COC(=O)CCCCC(=O)OCC(CC)CCCC (centres unmarked) [Di-2-ethylhexyl Adipate, di-2-ethylhexyl adipate] |  |  |  |  |  |  |  | 6.86 | 1.3 × 10^6 | 6.60 | 0.008 | 5.0 × 10^7 | 6.30 | 0.01 | 1.4 × 10^9 | 6.10 | 0.15 | gradually assimilated as time passed | 
CCOC(=O)CC(O)(CC(=O)OCC)C(=O)OCC [Triethyl Citrate] | > 25 mL/kg |  |  |  |  |  |  |  |  |  |  |  |  |  |  |  |  |  | 
CC(C)CCOC(=O)CCCCC(=O)OCCC(C)C (single isomer, unassigned) [DIAA, diisoamyl adipate] | > 25 mL/kg |  |  |  |  |  |  | 6.90 | 1.6 × 10^6 | 4.74 | 0.105 | < 10^2 | 4.40 | 0.05 | < 10^2 | 4.30 | 0.055 | assimilated very well | Primary irritation of the skin (skin of an albino rabbit): did not exhibit irritating effects; Cumulative irritation on the skin (skin of a guinea pig): did not exhibit irritating effects; APHA color of octanal [3]: about 30 APHA; Acute toxicity compared with conventional perfume controlling agents ([1]; conclusion from Table 1): equal to, or lower than, other conventional perfume controlling agents
CCCCCCCCCCCCCC(=O)OC(C)C [Isopropyl Myristate] | > 25 mL/kg |  |  |  |  |  |  |  |  |  |  |  |  |  |  |  |  |  | 
CC(C)OC(=O)CCCCC(=O)OC(C)C [Diisopropyl Adipate, diisopropyl adipate] |  |  |  |  |  |  |  | 6.90 | 4.0 × 10^5 | 6.90 | 0.005 | 1.9 × 10^7 | 5.32 | 0.26 | < 10^3 | 4.22 | 0.46 | assimilated very well | 
O=C(OCc1ccccc1)c1ccccc1 [Benzyl Benzoate, benzyl benzoate] |  | 1.6% | 31.3% | 37.7% | 20.6% | 0.0% | 1.3% |  |  |  |  |  |  |  |  |  |  |  | Analysis of Residue on Paper after Standing 15 Minutes (Area Ratio) [4, 7]: 1.8; Analysis of Residue on Paper after Standing 15 Minutes (Area Ratio) [4, 8]: 0.38; Analysis of Residue on Paper after Standing 15 Minutes (Area Ratio) [4, 9]: 8.1; Analysis of Residue on Paper after Standing 15 Minutes (Area Ratio) [4, 10]: 8; Analysis of Residue on Paper after Standing 15 Minutes (Area Ratio) [4, 11]: 1; Analysis of Residue on Paper after Standing 15 Minutes (Area Ratio) [4, 12]: 0
dipropylene glycol | 17.6 mL/kg | 3.7% | 2.7% | 42.8% | 40.0% | 0.0% | 0.2% | 6.84 | 3.1 × 10^6 | 6.84 | 0 | 7.2 × 10^7 | 6.82 | 0.005 | 4.7 × 10^6 | 6.82 | 0 | not assimilated | Analysis of Residue on Paper after Standing 15 Minutes (Area Ratio) [4, 7]: 1.1; Analysis of Residue on Paper after Standing 15 Minutes (Area Ratio) [4, 8]: 0; Analysis of Residue on Paper after Standing 15 Minutes (Area Ratio) [4, 9]: 4.9; Analysis of Residue on Paper after Standing 15 Minutes (Area Ratio) [4, 10]: 4.1; Analysis of Residue on Paper after Standing 15 Minutes (Area Ratio) [4, 11]: 1; Analysis of Residue on Paper after Standing 15 Minutes (Area Ratio) [4, 12]: 0
CCCCCCCC=O [octanal] |  |  |  |  |  |  |  |  |  |  |  |  |  |  |  |  |  |  | APHA color of octanal [3]: > 300 APHA

From US4110626A, “Method for improving the quality of the fragrance of perfumes using aliphatic dibasic acid diesters” (Shiseido Co., Ltd., priority 1976, dated 1978)
